Laboratory results: patent US10308615B2, “Heterocyclic compounds as inhibitors of Vanin-1 enzyme” (Pfizer Inc., priority 2015, dated 2019)

Experiments:
DSS-induced colitis = assay: DSS (Dextran Sodium Sulfate)-induced colitis mouse model of IBD; format: in vivo, mice
Experimental: Induced Colitis Mouse Model Methods
Example 1 along with sulfasalazine was evaluated in DSS (Dextran Sodium Sulfate) —induced colitis mouse model of IBD. Experimental colitis was induced in healthy young female BALB/C mice by providing 4% DSS; molecular weight 36,000-50,000 (wt/vol) in drinking water ad-libitium for seven days followed by water alone for another seven days. At the commencement of the study, mice were between 7-8 weeks of age, weighing 18-20 g. All the mice were obtained from The Jackson Laboratory, Bar Harbor, Me. 04609 USA. The test articles Example 1 and vehicle were administered subcutaneously (sc) once a day beginning day −1 and continued till day 14. The positive control, Sulfasalazine was dosed orally (po) once a day beginning day 5 and continued till day 14 (Table 2). The body weights were recorded prior to dosing and daily thereafter for fourteen days. Clinical assessments of the mice were performed every other day beginning day 5. The clinical assessment includes body weight, stool consistency and the presence of blood in the stools and scored accordingly to the Table-3. At the end of the study mice were sacrificed using CO2 asphyxiation and colon from the colocecal junction to the anus was removed, washed and cleaned of all fecal matter using PBS, measured and weighed. The data are presented as the mean±standard error (SEM). Data were analyzed using two-way ANOVA using Bonferroni post-test. groups were considered significant at p<0.05.

human vanin-1 [1] = biological target: T1, human vanin-1 (Homo sapiens (Human), UniProt O95497); assay: Human Vanin-1 Enzyme Assay 1; format: biochemical; settings: 25 pM human vanin-1, 50 uM pantetheine 7-amino-4-trifluoromethylcoumarin, 30 min preincubation, 60 min
In short: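 Purified His6/FLAG-tagged extracellular domain of human vanin-1, secreted from CHO cells, at 25 pM final in 50 mM Tris-HCl pH 8.0, 50 mM KCl, 0.005% Brij-35, 1.6 mM cysteamine, 0.5% DMSO. Inhibitor preincubated 30 min at room temperature; 50 uM pantetheine-AFC substrate, 60 min, fluorescence at 405/510 nm; 11-point four-fold dilution series.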

human vanin-1 [2] = biological target: T1, human vanin-1; assay: Human Vanin-1 Enzyme Assay 2; format: biochemical; settings: 1 nM human vanin-1, 10 uM substrate, 45 min
In short: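 Purified CHO-expressed His/FLAG-tagged human vanin-1 extracellular domain (1 nM) cleaved pantetheine-AMC-CF3 substrate (10 uM) in pH 8.0 Tris buffer with 1.5 mM cysteamine and 1% DMSO. Fluorescence (ex 405/em 505 nm) was read after 45 min, over an 11-point half-log inhibitor series.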

human vanin-1 [3] = biological target: T1, human vanin-1; assay: Human Vanin-1 Enzyme Assay 3; format: biochemical; settings: 2 nM human vanin-1, 10 uM substrate, 15 min
In short: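 His/FLAG-tagged extracellular domain of human vanin-1 from CHO cells, used at 2 nM final, with 10 uM pantetheine-AFC substrate. Buffer: 50 mM Tris-HCl pH 8.0, 50 mM KCl, 0.005% Brij-35, 1.5 mM cysteamine, 1% DMSO. 15 min at room temperature; fluorescence read at 405/505 nm across an 11-point 2-fold dilution series.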

[4] = 50 mg/kg sc QD days -1-14, 4% DSS, female BALB/C mice

T1 sequence (O95497 22-491): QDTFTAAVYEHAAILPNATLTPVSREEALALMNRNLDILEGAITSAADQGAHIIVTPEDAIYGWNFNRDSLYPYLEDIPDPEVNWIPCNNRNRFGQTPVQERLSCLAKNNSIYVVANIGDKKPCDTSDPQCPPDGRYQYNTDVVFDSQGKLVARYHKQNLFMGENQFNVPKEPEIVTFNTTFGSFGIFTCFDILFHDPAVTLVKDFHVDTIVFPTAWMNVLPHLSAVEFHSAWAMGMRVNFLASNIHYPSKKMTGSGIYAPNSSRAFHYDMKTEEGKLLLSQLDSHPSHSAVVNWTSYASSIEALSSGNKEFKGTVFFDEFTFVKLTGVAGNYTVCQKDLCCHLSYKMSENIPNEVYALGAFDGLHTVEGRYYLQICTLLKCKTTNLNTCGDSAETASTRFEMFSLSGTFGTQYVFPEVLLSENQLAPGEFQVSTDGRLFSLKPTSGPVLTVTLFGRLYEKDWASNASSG

Compound | IC50 (human vanin-1 [1]) [nM] | IC50 (human vanin-1 [2]) [nM] | IC50 (human vanin-1 [3]) [nM] | Disease Activity Index (DAI) (DSS-induced colitis; [4]) | colon length (DSS-induced colitis; [4]) | loss of body weight (DSS-induced colitis; [4]) | improvement in the colitis (FIG. 1-3) (DSS-induced colitis; 100 mg/kg po QD days 5-14, positive control)
N#Cc1cccc(C(=O)c2cnc(NC3(c4cncnc4)CC3)nc2)c1 [Example 1, 3-[(2-{[1-(pyrimidin-5-yl)cyclopropyl]amino}pyrimidin-5-yl)carbonyl]benzonitrile] | 4.1 | 7 | – | mark improvement | mark improvement | mark improvement | –
O=C(c1ccccc1)c1cnc(NCc2cccnn2)nc1 [Example 115, phenyl{2-[(pyridazin-3-ylmethyl)amino]pyrimidin-5-yl}methanone] | 1400 | 1510 | 806 | – | – | – | –
O=C(c1ccccc1)c1cnc(NCc2cnccn2)nc1 [Example 116, phenyl{2-[(pyrazin-2-ylmethyl)amino]pyrimidin-5-yl}methanone] | 419 | 561 | 321 | – | – | – | –
O=C(O)c1cc(/N=N/c2ccc(S(=O)(=O)Nc3ccccn3)cc2)ccc1O [Sulfasalazine, reference compound] | – | – | – | – | – | – | improvement in the colitis

Continued, in another order:

IC50 (human vanin-1 [1]) [nM] | IC50 (human vanin-1 [2]) [nM] | IC50 (human vanin-1 [3]) [nM] | Compound | Disease Activity Index (DAI) (DSS-induced colitis; [4]) | colon length (DSS-induced colitis; [4]) | loss of body weight (DSS-induced colitis; [4]) | improvement in the colitis (FIG. 1-3) (DSS-induced colitis; 100 mg/kg po QD days 5-14, positive control)
50.5 | 31.8 | 18.1 | N#Cc1cccc(C(=O)c2cnc(NCc3cnccn3)nc2)c1 [Example 117, 3-({2-[(pyrazin-2-ylmethyl)amino]pyrimidin-5-yl}carbonyl) benzonitrile] | – | – | – | –
4 | 11.2 | 4.6 | N#Cc1cccc(C(=O)c2cnc(NCc3cccnc3)nc2)c1 [Example 118, 3-({2-[(pyridin-3-ylmethyl)amino]pyrimidin-5-yl}carbonyl) benzonitrile] | – | – | – | –
36 | 37.8 | 16.6 | N#Cc1cccc(C(=O)c2cnc(NCc3cncnc3)nc2)c1 [Example 120, 3-({2-[(pyrimidin-5-ylmethyl)amino]pyrimidin-5-yl}carbonyl) benzonitrile] | – | – | – | –
32.3 | 50.4 | 9.1 | CC(C)(Nc1ncc(C(=O)c2cccc(C(F)(F)F)c2)cn1)c1ccccc1 [Example 121, {2-[(2-phenylpropan-2-yl)amino]pyrimidin-5-yl}[3-(trifluoromethyl)phenyl]methanone] | – | – | – | –
526 | 798 | 223 | CC(C)(Nc1ncc(C(=O)c2ccc3c(c2)OCCO3)cn1)c1ccccc1 [Example 124, 2,3-dihydro-1,4-benzodioxin-6-yl{2-[(2-phenylpropan-2-yl)amino]pyrimidin-5-yl}methanone] | – | – | – | –
28.2 | 44 | 40.6 | CS(=O)(=O)c1cccc(C(=O)c2cnc(NCc3ccc(C#N)cc3)nc2)c1 [Example 126, 4-[({5-[3-(methylsulfonyl)benzoyl]pyrimidin-2-yl}amino)methyl] benzonitrile] | – | – | – | –
38.1 | 38.9 | 43.5 | O=C(c1cnc(NCc2cccnc2)nc1)c1cc(F)cc(C(F)(F)F)c1 [Example 128, [3-fluoro-5-(trifluoromethyl)phenyl]{2-[(pyridin-3-ylmethyl)amino]pyrimidin-5-yl}methanone] | – | – | – | –
